In US12624044B2, “SMARCA degraders and uses thereof” (Kymera Therapeutics, Inc., priority 2019, dated 2026):

Key:
SMARCA2 [1] = target: T1, SMARCA2 (Homo sapiens, UniProt P51531); assay: MSD SMARCA2 degradation in A549 cell line; assay type: cell-based; conditions: 24 h; for Dmax: A549, A549 cells; for DC50: A549 cells, read-out: SMARCA2 MSD A549 degradation 24 h: Average external-Abs DC50
Method: Cells were seeded into 96-well plates (A549 cells: 2×10^4 cells/well/100 ul media) abd incubated overnight. The next day, 200 nl compound were added into the intermediate plate with Echo (Labcyte 550) from source plate containing a 3-fold serial dilution from top concentration of 1 mM. The culture medium was changed with 80 ul of fresh medium and 80 ul of 2× compound solution was added into the well to make a final concentration of 1000 nM, 333.3 nM, 111.1 nM, 37.04 nM, 12.35 nM, 4.115 nM, 1.372 nM, 0.457 nM, 0.152 nM and 0 nM (DMSO). The wells were mixed and then incubated for 24 hours. The media was aspirated from the cultures and 60 ul pre-chilled PIPA lysis buffer (Boston BioProducts BP-115D) with protease/phosphatase inhibitor (Roche 05892791001/Roche 04906837001) was added into the well to lyze the cells for 20 minutes at 4° C. The MSD plate (L15XA) was coated with 40 ul cell lysate and incubated at 4° C. overnight. The next day, the plate was washed three times with TBST (CST #9997S), 150 ul/well. The MSD plates was blocked with 150 ul blocking buffer per well and shaked for 1 hr at RT, 600 rpm. The blocking buffer was 3% Blocker A (MSD, R93BA-4) in TBST. The MSD plate was washed three times with 150 ul/well of TBST and 25 ul/well of detection antibody (Rabbit anti-SMARCA2/BRM antibody, 100 μg/ml, ab223735) was added at final concentration of 1 ug/ml diluted in 1% Blocking buffer and shaken for 1 hour at RT, 600 rpm. The MSD plate was washed three times with 150 ul/well of TBST and 25 ul/well of SULFO-TAG anti-rabbit antibody (MSD, R32AB-1) was added at final concentration of 1 ug/ml diluted in 1% Blocking buffer and shaken for 1 hour at RT, 600 rpm. The MSD plate was washed three times with 150 ul/well of TBST and 150 ul/well of 2×MSD reading buffer diluted from 4× (MSD, R92TC-2) with water was added. Lastly, the MSD instrument was read.
The letter codes for the percentage of SMARCA2 degradation after 24 hours (Dmax %) include: A (>90% degradation), B (>70-90% degradation), C (50-70% degradation), and D (<50% degradation).

SMARCA2 [2] = target: T1, SMARCA2; assay: MSD SMARCA2 degradation in NCI-H1299 cell line (24 h); assay type: cell-based; parameters: HC: NCI-H1299 cells treated with DMSO; host or cells: NCI-H1299; conditions: for Dmax: NCI-H1299, NCI-H1299 cells; for DC50: NCI-H1299 cells, read-out: SMARCA2 MSD H1299 degradation 24 h: External Abs-DC50
Procedure, shortened: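 NCI-H1299 cells treated 24 h with a 3-fold, 9-point compound dilution series, then lysed in RIPA with protease inhibitor. SMARCA2 in lysate-coated MSD plates detected with rabbit anti-SMARCA2 (0.3 ug/ml) and SULFO-TAG secondary. Relative SMARCA2 level normalized between DMSO-treated H1299 cells and SMARCA2-negative A2780 cells; Dmax % binned A–D.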

T1 sequence (P51531 whole entry): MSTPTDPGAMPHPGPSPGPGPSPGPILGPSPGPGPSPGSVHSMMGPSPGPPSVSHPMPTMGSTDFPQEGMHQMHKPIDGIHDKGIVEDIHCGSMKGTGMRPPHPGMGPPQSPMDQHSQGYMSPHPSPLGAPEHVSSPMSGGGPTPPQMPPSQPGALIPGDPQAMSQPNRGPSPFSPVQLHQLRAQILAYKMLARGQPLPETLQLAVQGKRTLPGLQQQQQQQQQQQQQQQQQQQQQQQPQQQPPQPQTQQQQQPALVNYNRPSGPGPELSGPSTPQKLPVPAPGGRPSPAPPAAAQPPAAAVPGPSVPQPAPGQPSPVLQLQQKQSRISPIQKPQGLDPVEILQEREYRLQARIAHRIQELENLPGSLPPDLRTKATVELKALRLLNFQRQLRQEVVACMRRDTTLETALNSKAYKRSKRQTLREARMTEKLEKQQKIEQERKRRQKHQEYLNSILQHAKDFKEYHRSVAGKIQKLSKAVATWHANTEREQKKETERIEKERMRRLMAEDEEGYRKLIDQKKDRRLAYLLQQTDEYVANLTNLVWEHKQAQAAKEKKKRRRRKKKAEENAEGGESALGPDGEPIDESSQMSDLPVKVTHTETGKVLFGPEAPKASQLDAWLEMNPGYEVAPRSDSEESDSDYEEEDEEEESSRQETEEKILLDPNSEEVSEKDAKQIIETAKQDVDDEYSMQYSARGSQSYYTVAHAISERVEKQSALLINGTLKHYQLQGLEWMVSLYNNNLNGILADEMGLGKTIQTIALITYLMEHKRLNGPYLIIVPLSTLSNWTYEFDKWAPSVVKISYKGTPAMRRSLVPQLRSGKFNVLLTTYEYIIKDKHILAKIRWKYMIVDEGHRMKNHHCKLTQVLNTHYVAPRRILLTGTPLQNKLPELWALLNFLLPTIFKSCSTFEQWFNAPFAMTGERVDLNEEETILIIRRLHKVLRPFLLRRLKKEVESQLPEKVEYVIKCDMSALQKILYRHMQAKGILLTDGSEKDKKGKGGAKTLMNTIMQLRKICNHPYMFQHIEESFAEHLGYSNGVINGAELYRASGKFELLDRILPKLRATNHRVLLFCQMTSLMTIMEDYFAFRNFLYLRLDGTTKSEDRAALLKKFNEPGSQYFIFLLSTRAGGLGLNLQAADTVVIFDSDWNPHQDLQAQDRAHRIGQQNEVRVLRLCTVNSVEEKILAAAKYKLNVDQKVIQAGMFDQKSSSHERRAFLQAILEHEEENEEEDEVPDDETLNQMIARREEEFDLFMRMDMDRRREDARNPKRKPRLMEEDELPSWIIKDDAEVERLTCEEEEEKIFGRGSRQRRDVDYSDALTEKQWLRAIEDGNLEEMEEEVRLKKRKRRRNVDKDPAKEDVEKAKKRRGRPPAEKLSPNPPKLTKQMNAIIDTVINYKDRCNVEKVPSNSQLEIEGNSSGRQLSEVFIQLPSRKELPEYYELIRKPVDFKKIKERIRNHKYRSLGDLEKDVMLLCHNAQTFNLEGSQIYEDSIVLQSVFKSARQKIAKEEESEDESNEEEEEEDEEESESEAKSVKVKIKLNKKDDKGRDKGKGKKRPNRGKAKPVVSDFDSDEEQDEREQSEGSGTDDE

| SMILES | Dmax (SMARCA2 [1]) | DC50 (SMARCA2 [1]) | Dmax (SMARCA2 [2]) | DC50 (SMARCA2 [2]) |
| --- | --- | --- | --- | --- |
| O=C1CCC(n2c(=O)oc3c(CCCOC4CCN(Cc5ccc(C#Cc6cc(NC(=O)Nc7cc(F)ncc7CO)ccn6)cc5)CC4)cccc32)C(=O)N1 (stereo not shown) [I-309] | < 50% | > 1000 nM | – | – |
| Cc1ncsc1-c1ccc(CNC(=O)[C@@H]2C[C@@H](O)CN2C(=O)[C@@H](NC(=O)N2CCC3(CCC(c4cnc(N5C6CCC5CN(c5cc(-c7ccccc7O)nnc5N)C6)nc4)CC3)CC2)C(C)(C)C)cc1 [I-510] | > 90% | 100 to 500 nM | – | – |
| Cn1c(=O)n(C2CCC(=O)NC2=O)c2ccc(CCCCCCCCc3cnc(N4C5CCC4CN(c4cc(-c6ccccc6O)nnc4N)C5)nc3)cc21 (stereo not shown) [I-89, 3-[5-[8-[2-[3-[3-amino-6-(2-hydroxyphenyl)pyridazin-4-yl]-3,8-diazabicyclo [3.2.1]octan-8-yl]pyrimidin-5-yl]octyl]-3-methyl-2-oxo-benzimidazol-1-yl]piperidine-2,6-dione] | – | – | > 90% | < 100 nM |
| Cn1c(=O)n(C2CCC(=O)NC2=O)c2cccc(CNCCCCc3cn(Cc4cccc(N5C[C@H]6C[C@@H]5CN6/C=C/C(=O)c5ccccc5O)n4)nn3)c21 (stereo partly shown) [I-80] | – | – | < 50% | > 1000 nM |
| Cn1c(=O)n(C2CCC(=O)NC2=O)c2cccc(CCCCCOc3cccc(CN4CCN(c5cc(-c6ccccc6O)nnc5N)CC4)c3)c21 (stereo not shown) [I-97] | – | – | 50 to 70% | 100 to 500 nM |
| Cn1c(=O)n(C2CCC(=O)NC2=O)c2cccc(CCCCCCCc3cn(Cc4cccc(N5C[C@H]6C[C@@H]5CN6/C=C/C(=O)c5ccccc5O)n4)nn3)c21 (stereo partly shown) [I-52] | – | – | < 50% | > 1000 nM |
| CN1C(=O)CCC(n2c(=O)n(C)c3cc(CCCCCCCc4cnc(N5C6CCC5CN(c5cc(-c7ccccc7O)nnc5N)C6)nc4)ccc32)C1=O (stereo not shown) [I-187] | – | – | < 50% | > 1000 nM |
| Cn1c(=O)n(C2CCC(=O)NC2=O)c2ccc(CNCc3cn(Cc4cccc(N5C[C@H]6C[C@@H]5CN6/C=C/C(=O)c5ccccc5O)n4)nn3)cc21 (stereo partly shown) [I-27] | – | – | – | > 1000 nM |
| Cn1c(=O)n(C2CCC(=O)NC2=O)c2cccc(CCCOCCOCCOc3cccc(N4C[C@H]5C[C@@H]4CN5/C=C/C(=O)c4ccccc4O)n3)c21 (stereo partly shown) [I-32] | – | – | – | > 1000 nM |
| Cn1c(=O)n(C2CCC(=O)NC2=O)c2ccc(CCCCCCCc3cn(Cc4cccc(N5C[C@H]6C[C@@H]5CN6/C=C/C(=O)c5ccccc5O)n4)nn3)cc21 (stereo partly shown) [I-47] | – | – | < 50% | > 1000 nM |
| Cn1c(=O)n(C2CCC(=O)NC2=O)c2cccc(CNCCCCCc3cn(Cc4cccc(N5C[C@H]6C[C@@H]5CN6/C=C/C(=O)c5ccccc5O)n4)nn3)c21 (stereo partly shown) [I-81] | – | – | < 50% | > 1000 nM |
| CN(CCOCCOCCCc1ccc2c(c1)oc(=O)n2C1CCC(=O)NC1=O)Cc1ccc(N2CCN(c3cc(-c4ccccc4O)nnc3N)CC2)cc1 (stereo not shown) [I-123] | – | – | 70 to 90% | 100 to 500 nM |
| O=C1CCC(n2c(=O)n(CCCCCCc3cn(Cc4cccc(N5C[C@H]6C[C@@H]5CN6/C=C/C(=O)c5ccccc5O)n4)nn3)c3ccccc32)C(=O)N1 (stereo partly shown) [I-56] | – | – | < 50% | > 1000 nM |
| Cn1c(=O)n(C2CCC(=O)NC2=O)c2ccc(CCCOCCOCCOCCOCCNC(=O)CCCCCCCCOc3ccc(N4C[C@H]5C[C@@H]4CN5/C=C/C(=O)c4ccccc4O)nc3)cc21 (stereo partly shown) [I-5] | – | – | – | > 1000 nM |
| CN(CC#Cc1cnc(N2C3CCC2CN(c2cc(-c4ccccc4O)nnc2N)C3)nc1)CCCc1ccc2c(c1)n(C)c(=O)n2C1CCC(=O)NC1=O (stereo not shown) [I-195, 3-[5-[3-[3-[2-[3-[3-amino-6-(2-hydroxyphenyl)pyridazin-4-yl]-3,8-diazabicyclo[3.2.1]octan-8-yl]pyrimidin-5-yl]prop-2-ynyl-methyl-amino]propyl]-3-methyl-2-oxo-benzimidazol-1-yl]piperidine-2,6-dione] | – | – | > 90% | < 100 nM |
| O=C1CCC(N2C(=O)c3cccc(OCCCc4cn(Cc5cccc(N6C[C@H]7C[C@@H]6CN7/C=C/C(=O)c6ccccc6O)n5)nn4)c3C2=O)C(=O)N1 (stereo partly drawn) [I-36, 2-(2,6-dioxo-3-piperidyl)-4-[3-[1-[[6-[(1R,4R)-5-[(E)-3-(2-hydroxyphenyl)-3-oxo-prop-1-enyl]-2,5-diazabicyclo[2.2.1]heptan-2-yl]-2-pyridyl]methyl]triazol-4-yl]propoxy]isoindoline-1,3-dione] | – | – | – | > 1000 nM |

Continued, values first:

| Dmax (SMARCA2 [1]) | DC50 (SMARCA2 [1]) | Dmax (SMARCA2 [2]) | DC50 (SMARCA2 [2]) | SMILES |
| --- | --- | --- | --- | --- |
| > 90% | 100 to 500 nM | – | – | Cc1ncsc1-c1ccc(CNC(=O)[C@@H]2C[C@@H](O)CN2C(=O)[C@@H](NC(=O)[C@H]2CC[C@@H](c3ccc(CN4CCC(Cn5cc(-c6cc(-c7ccccc7O)nnc6N)cn5)CC4)cc3)CC2)C(C)(C)C)cc1 [I-379] |
| – | – | < 50% | > 1000 nM | Cn1c(=O)n(C2CCC(=O)NC2=O)c2ccc(CCCOCCN3CCN(Cc4ccc(-c5cc(-c6ccccc6O)nnc5N)cc4)CC3)cc21 (stereo not shown) [I-105, 3-[5-[3-[2-[4-[[4-[3-amino-6-(2-hydroxyphenyl)pyridazin-4-yl]phenyl]methyl]piperazin-1-yl]ethoxy]propyl]-3-methyl-2-oxo-benzimidazol-1-yl]piperidine-2,6-dione] |
| – | – | 70 to 90% | > 1000 nM | Cn1c(=O)n(C2CCC(=O)NC2=O)c2ccc(CN3CCN(CCO[C@H]4C[C@H](NCc5ccc(N6CCN(c7cc(-c8ccccc8O)nnc7N)CC6)cc5)C4)CC3)cc21 (stereo partly shown) [I-131] |
| – | – | 70 to 90% | 100 to 500 nM | CN(Cc1ccc(N2CCN(c3cc(-c4ccccc4O)nnc3N)CC2)cc1)C1CCN(Cc2cccc3c2n(C)c(=O)n3C2CCC(=O)NC2=O)CC1 (stereo not shown) [I-109] |
| – | – | 50 to 70% | 100 to 500 nM | Cn1c(=O)n(C2CCC(=O)NC2=O)c2cccc(CCCOCCN3CCN(Cc4ccc(-c5cc(-c6ccccc6O)nnc5N)cc4)CC3)c21 (stereo not shown) [I-106] |
| – | – | 70 to 90% | 100 to 500 nM | Cn1c(=O)n(C2CCC(=O)NC2=O)c2cccc(CCCCCN3CCC[C@@H](Cn4cc(-c5cc(-c6ccccc6O)nnc5N)cn4)C3)c21 (stereo partly shown) [I-190] |
| – | – | – | > 1000 nM | Cc1ncsc1-c1ccc(CNC(=O)[C@@H]2C[C@@H](O)CN2C(=O)[C@@H](NC(=O)COCCOCCOCCOCCNC(=O)CCCCCCCCOc2ccc(N3C[C@H]4C[C@@H]3CN4/C=C/C(=O)c3ccccc3O)nc2)C(C)(C)C)cc1 [I-231] |
| – | – | > 90% | 501 to 1000 nM | Cc1ncsc1-c1ccc(CNC(=O)[C@@H]2C[C@@H](O)CN2C(=O)[C@@H](NC(=O)CCCCCCCCCN2CCC(Cn3cc(-c4cc(-c5ccccc5O)nnc4N)cn3)CC2)C(C)(C)C)cc1 [I-214] |
| – | – | 70 to 90% | 100 to 500 nM | Cn1c(=O)n(C2CCC(=O)NC2=O)c2cccc(CCCN3CCC[C@@H](Cn4cc(-c5cc(-c6ccccc6O)nnc5N)cn4)C3)c21 (stereo partly shown) [I-188] |
| – | – | – | > 1000 nM | Cc1ncsc1-c1ccc(CNC(=O)[C@@H]2C[C@@H](O)CN2C(=O)[C@@H](NC(=O)COCCOCCOCCNC(=O)c2ccc(C(C)n3cc(-c4cc(-c5ccccc5O)nnc4N)cn3)cc2)C(C)(C)C)cc1 (stereo partly shown) [I-224] |
| – | – | – | > 1000 nM | Cc1ncsc1-c1ccc(CNC(=O)[C@@H]2C[C@@H](O)CN2C(=O)[C@@H](NC(=O)COCCOCCOCCOCCNC(=O)c2ccc(C(C)n3cc(-c4cc(-c5ccccc5O)nnc4N)cn3)cc2)C(C)(C)C)cc1 (stereo partly shown) [I-227] |
| – | – | 50 to 70% | 100 to 500 nM | Cn1c(=O)n(C2CCC(=O)NC2=O)c2ccc(CCCOCCOCCOCCN3CCN(Cc4ccc(-c5cc(-c6ccccc6O)nnc5N)cc4)CC3)cc21 (stereo not shown) [I-134] |
| – | – | 50 to 70% | > 1000 nM | Cn1c(=O)n(C2CCC(=O)NC2=O)c2cccc(CCCCCCCN3CCCC(n4cc(-c5cc(-c6ccccc6O)nnc5N)cn4)C3)c21 (stereo not shown) [I-171] |
| – | – | 70 to 90% | 501 to 1000 nM | Cc1ncsc1-c1ccc(CNC(=O)[C@@H]2C[C@@H](O)CN2C(=O)[C@@H](NC(=O)CCCCCCCN(C)Cc2ccc(N3CCN(c4cc(-c5ccccc5O)nnc4N)CC3)cc2)C(C)(C)C)cc1 [I-216] |
| – | – | 70 to 90% | 100 to 500 nM | Cn1c(=O)n(C2CCC(=O)NC2=O)c2cccc(CCCOCC3CN(Cc4ccc(N5CCN(c6cc(-c7ccccc7O)nnc6N)CC5)cc4)C3)c21 (stereo not shown) [I-124] |
